Among the data in ChEMBL document CHEMBL1122400, “A deuterium isotope effect on the inhibition of gastric secretion by N,N-dimethyl-N'-[2-(diisopropylamino)ethyl]-N'-(4,6-dimethyl-2-pyridyl)urea. Synthesis of metabolites” (1983) are ED50 values, retold here.

The test system of the assay is Canis familiaris. Nature of the assay: Inhibition of gastric acid secretion in dogs stimulated by gastrin tetrapeptide when administered perorally. In kind it is functional. The following applies: Canis lupus familiaris, Stomach, po.

In general, ED50 refers to the dose that gives a 50% effect, or the effect in half of the subjects. Read a high ED50 as weaker potency.

`[2H]C([2H])([2H])c1cc(C)nc(N(CCN(C(C)C)C(C)C)C(=O)N(C)C)c1`: it took a dose of 7.26 µmol/kg to reach the 50% effect level (ED50). In turn, `Cc1cc(CO)nc(N(CCN(C(C)C)C(C)C)C(=O)N(C)C)c1` came in with an ED50 of 29.4 µmol/kg. The figure for `Cc1cc(CO)cc(N(CCN(C(C)C)C(C)C)C(=O)N(C)C)n1` is 23.3 µmol/kg; for `Cc1cc(C)nc(N(CCN(C(C)C)C(C)C)C(=O)N(C)C)c1` it is 15.3 µmol/kg. Next, `CC(C)N(CCN(C(=O)N(C)C)c1cc(C(F)(F)F)cc(C(F)(F)F)n1)C(C)C`: 43.9 µmol/kg. `CN/C(=N\CCSCc1nc[nH]c1C)NC#N` [CIMETIDINE] returned a median effective dose (ED50) of 14.3 µmol/kg.
